Source: patent EP2197879B1, “C7-SUBSTITUTED CAMPTOTHECIN ANALOGS” (priority 2007, dated 2009)
Read-outs that look alike come from different tables or passages of the source.

Columns and labels:
[1] = cited from earlier work; for No. of Patients With Cystitis / No. of Patients With Diarrhea: 5-day Course; for Number of Patients with Cystitis / Number of Patients with Diarrhea: Single-Dose Method
[2] = system: advanced gastrointestinal cancer; conditions: cited from earlier work
[3] = system: advanced malignant melanoma; conditions: 90-360 mg/m^2 repeated every 2 weeks; fifteen patients; cited from earlier work
[4] = cited from earlier work
[5] = closed E-ring lactone form; drug dissolving in 1 mL of water; cited from earlier work
[6] = clinical studies in Japan alone; cited from earlier work
angiogenesis = conditions: dose levels of 210 mg/kg; cited from earlier work
A2780/DX5 cells = test: Sulforhodamine B (SRB) cytotoxicity assay in A2780/DX5 cells; type: cell-based; conditions: for IC50 Ratio: A2780/DX5 versus A2780/WT
Description: (§1) Each of the testing conditions used in this study in both A2780/WT (wild-type) and A2780/DX5 cells were repeated in five to fifteen experiments that were performed on separate days. Each experiment consisted of one microtiter plate with at least eight individual assays of a given drug treatment condition on the plate. The sulforhodamine B (SRB) assay was used to assess cytotoxicity and absorbance at 570 nm (A570) in order to calculate the percentage of cell control (or percent cell survival) for the various treatment conditions in the plate wells.
(§2) Roswell Park Memorial Institute (RPMI 1640) medium, fetal bovine serum (FBS), and L-glutamine were purchased from Gibco BRL. Drugs were dissolved in sterile dimethylsulfoxide (DMSO), from American Type Culture Collection (ATCC) for stock solutions (2.5 to 5.0 mM). Subsequent dilutions were made using cell culture medium (prior to adding the drug to cells). SRB was purchased from Sigma and dissolved in 1.0 percent acetic acid. Trichloroacetic acid was purchased from VWR International.
(§3) Cells were manipulated in a Class IIA/B3 Biological Safety Cabinet (Forma Scientific) and maintained at 37°C in a humidified atmosphere containing 5% CO2 in a water-jacketed cell culture incubator (Forma Scientific). Cells were counted using a Coulter-Z1 counter (Beckman-Coulter). Following drug treatment, plates were washed using a Biomek 2000 station (Beckman) and, following exposure to SRB dye, plates were washed using an automated plate washer (Model EL404, Bio-Tek Instruments). Percentage of control was correlated to A570 values and determined using a Model EL800 plate reader (Bio-Tek Instruments).
(§4) Population doubling times for the two cell lines used in this study encompassed a total of five cell doublings corresponding to approximately 5 days for A2780/WT and A2780/DX5 cells. A2780/WT and A2780/DX5 cells were cultured in RPMI 1640 medium supplemented with 10% fetal bovine serum and 1 mM of L-glutamine. Both cell lines were maintained as monolayered cultures in T-25 or T-75 flasks and then seeded to microtiter plate wells for experiments described herein. Prior to SRB assays, cell viability was monitored by evaluation of microtiter plate wells. Dead cells detach and float while living cells remain attached to the bottom of the cell well.
(§5) The sulforhodamine B (SRB) cytotoxicity assay (see, Skehan P, et al., New colorimetric cytotoxicity assay for anticancer-drug screening. J. Natl. Cancer Inst. 82:1107-1112 (1990)) was used to determine the cytotoxic effects of BNP1350, SN-38, topotecan, 9-NH2-CPT, and 9-NO2-CPT on cell growth in vitro. Briefly, after the medium was aspirated from individual plate wells, trichloroacetic acid (100 µL of 10.0% solution) was added to each well, and the plates were incubated at 4°C for at least 1 hour. The plates were washed five-times with water using an automated microplate washer (Model EL 404, Bio-Tek Instruments), SRB solution (100 µL of 0.4 grams SRB dissolved in 100 mL 1.0 percent acetic acid) was added, and plates remained at room temperature for 15 minutes. The plates were then washed five-times using acetic acid (1.0%), air dried, and bound dye was solubilized in Tris base (150 µL, 10 mM). Plates were agitated (gently) for 5 minutes and the absorbance values of the SRB dye-protein adduct at a 570 nm wavelength (A570) were determined using an automated microtiter plate reader equipped with an A570 filter (Model EL800, BioTek Instruments). Table VII. Summary of Cytotoxicity Experiments in A2780/WT and DX5 Cells

[7] = system: A2780/WT (wild-type) cells; test: Sulforhodamine B (SRB) cytotoxicity assay in A2780/WT cells; type: cell-based
Description: as §1, §2, §3, §4, §5

[8] = system: panel of over 20 human cancer cell lines; test: In vitro antitumor potency on a panel of human cancer cell lines; conditions: compared with Topotecan or SN-38
[9] = cited from earlier work; remark: listed apart in the source
[10] = 5-Day Course (27 Patients Total), 4 wks
[11] = 5-Day Course (27 Patients Total), 8 wks
[12] = 5-Day Course (27 Patients Total), 12 wks
[13] = Single-Dose Method (34 Patients Total), 3 wks
[14] = Single-Dose Method (34 Patients Total), 6 wks
[15] = Single-Dose Method (34 Patients Total), 9 wks
[16] = Single-Dose Method (34 Patients Total), 12 wks
[17] = 100 nM Compound Concentrations, 48 hours or longer at room temperature
[18] = Homo sapiens, A2780, read-out: A2780/ WT (IC50)
[19] = Homo sapiens, SRB assay, A2780/DX5 cells, read-out: A2780/ DX5 (IC50)

For CC[C@@]1(O)C(=O)OCc2c1cc1n(c2=O)Cc2cc3ccccc3nc2-1 [CPT sodium], the Cystitis ([1]; 5-Day Course) is listed as 48 (P<0.05) % of 27 Patients, the “No. of Patients With Cystitis” value ([1]; 11 mg/m^2 X 5) is listed as 1 and the “No. of Patients With Cystitis” value ([1]; 15 mg/m^2 X 5) is listed as 4. For the same compound, the “No. of Patients With Diarrhea” value ([1]; 15 mg/m^2 X 5) was 1, the “No. of Patients With Cystitis” value ([1]; 17 mg/m^2 X 5) was 2 and the “No. of Patients With Diarrhea” value ([1]; 17 mg/m^2 X 5) was 4. For the same compound, the “No. of Patients With Cystitis” value ([1]; 20 mg/m^2 X 5) was 6, the “No. of Patients With Diarrhea” value ([1]; 20 mg/m^2 X 5) was 4 and the “No. of Patients With Diarrhea” value ([1]; 22 mg/m^2 X 5) was 1. The Cystitis ([1]; Single Dose) was 24 % of 34 Patients, the “Number of Patients with Cystitis” value ([1]; 100 mg/m^2) was 2 and the “Number of Patients with Cystitis” value ([1]; 110 mg/m^2) was 1. The “Number of Patients with Diarrhea” value ([1]; 110 mg/m^2) was 1, the “Number of Patients with Cystitis” value ([1]; 120 mg/m^2) was 2 and the “Number of Patients with Diarrhea” value ([1]; 120 mg/m^2) was 4. For the same compound, the “Number of Patients with Cystitis” value ([1]; 180 mg/m^2) was 3, the “Number of Patients with Diarrhea” value ([1]; 180 mg/m^2) was 2 and the “Objective Results: Improved” value [2, 10] was 1. The “Objective Results: Stable” value [2, 10] was 12, the “Objective Results: Worse” value [2, 10] was 14 and the “Objective Results: Stable” value [2, 11] was 7. The “Objective Results: Worse” value [2, 11] was 20, the “Objective Results: Stable” value [2, 12] was 6 and the “Objective Results: Worse” value [2, 12] was 21. The “Objective Results: Improved” value [2, 13] was 4, the “Objective Results: Stable” value [2, 13] was 17 and the “Objective Results: Worse” value [2, 13] was 13. For the same compound, the “Objective Results: Improved” value [2, 14] was 2, the “Objective Results: Stable” value [2, 14] was 11 and the “Objective Results: Worse” value [2, 14] was 21. For the same compound, the “Objective Results: Improved” value [2, 15] was 2, the “Objective Results: Stable” value [2, 15] was 8 and the “Objective Results: Worse” value [2, 15] was 24. The “Objective Results: Stable” value [2, 16] was 6, the “Objective Results: Worse” value [2, 16] was 28 and the “patients with partial objective improvement” value ([2]; after 2 months (8 or 9 weeks), of 61 patients) was “two”. The patients with improvement ([2]; at 3 months, of 61 patients) was “none”, the “patients who showed a 25%-50% response” value ([2]; at 3 wks, only) was “*A total of 3 patients showed a 25%-50% response at 3 wks, only” and the “patients with a 50% or greater decrease in tumor diameter” value [3] was “None”. The “patients with less pronounced transient tumor regression” value [3] was “three”, the patients with myelosuppression [3] was 11 and the “patients with dose limiting bladder toxicity” value ([4]; doses of 20 to 30 mg/m^2) was “three”. The “additional patients with bladder toxicity” value ([4]; doses of 30 and 44 mg/m^2) was “two” and the clinical benefit ([4]; eight patients with measurable disease, 5-day courses) was “No clinical benefit”.
For CC[C@@]1(O)C(=O)OCc2c1cc1n(c2=O)Cc2cc3ccccc3nc2-1 [CPT, (S)-4-Ethyl-4-hydroxy-1 H-pyrano[3',4':6,7]indolizino[1,2-b]quinoline-3,14(4H,12H)-dione], the solubility in water [5] is given as “approximately 0.1 µg” and the “Percent of Free Camptothecin Analogs in Human Plasma” value (from here on “Percent of Free Camptothecin Analogs”) (human plasma proteins; [17]) is given as 0%.
In the case of CCc1c2c(nc3ccc(OC(=O)N4CCC(N5CCCCC5)CC4)cc13)-c1cc3c(c(=O)n1C2)COC(=O)[C@]3(O)CC [CPT-11, 7-ethyl-10-[4-(1-piperidino)-1-piperidino] carbonyloxy camptothecin], the “patient deaths directly attributable to drug toxicity” value [6] is given as “approximately 100” and the neovascularization (angiogenesis) is given as “significant reduction of neovascularization”.
In the case of CC[C@@]1(O)C(=O)OCc2c1cc1n(c2=O)Cc2c-1nc1ccccc1c2CC[Si](C)(C)CCl [Compound 3, 11-(4S)-[2-(chloromethyldimethylsilanyl)-ethyl]-4-ethyl-4-hydroxy-1,12-dihydro-4H-2-oxa-6,12a-diaza-dibenzo[b,h]fluorene-3,13-dione], the “IC50 Ratio” value (A2780/DX5 cells) is reported as 1.45, the IC50 (A2780/DX5 cells; Homo sapiens, A2780, read-out: A2780/ DX5 (IC50)) is reported as 14.5 nM and the IC50 [7, 18] is reported as 10 nM. For the same compound, the “Percent of Free Camptothecin Analogs” value (human plasma proteins; [17]) was 1%.
In the case of CC[C@@]1(O)C(=O)OCc2c1cc1n(c2=O)Cc2c-1nc1ccccc1c2CC[Si](C)(C)COC(C)=O [Compound 6, acetic acid-(4S)-{[2-(4-ethyl-4-hydroxy-3,13-dioxo-3,4,12,13-tetrahydro-1H-2-oxa-6,12a-diaza-dibenzo[b,h]fluoren-11-yl)-ethyl]-dimethylsilanyl}-methyl ester], the “IC50 Ratio” value (A2780/DX5 cells) is reported as 2.27, the IC50 (A2780/DX5 cells; [19]) is reported as 21.1 nM and the IC50 ([7]; Homo sapiens, SRB assay, A2780/WT cells, read-out: A2780/ WT (IC50)) is reported as 9.3 nM. For the same compound, the “Percent of Free Camptothecin Analogs” value (human plasma proteins; human, 100 nM) was 5%.
With CC[C@@]1(O)C(=O)OCc2c1cc1n(c2=O)Cc2c-1nc1ccccc1c2CC[Si](C)(C)CCCO [Compound 10, 4S-4-ethyl-4-hydroxy-11-{2-[(3-hydroxypropyl)-dimethylsilanyl]-ethyl}-1,12-dihydro-4H-2-oxa-6,12a-diaza-dibenzo[b,h]fluorene-3,13-dione] the “IC50 Ratio” value (A2780/DX5 cells) was 3.68, the IC50 (A2780/DX5 cells; SRB assay, A2780/DX5 cells, read-out: A2780/ DX5 (IC50)) was 35.3 nM and the IC50 ([7]; SRB assay, A2780/WT cells, read-out: A2780/ WT (IC50)) was 9.6 nM. For the same compound, the “Percent of Free Camptothecin Analogs” value (human plasma proteins; [17]) was 3.4%.
For CC[C@@]1(O)C(=O)OCc2c1cc1n(c2=O)Cc2c-1nc1ccccc1c2CC[Si](C)(C)Cn1cncn1 [Compound 30, (4S)-11-[2-(dimethyl-[1,2,4]triazol-1-ylmethylsilanyl)-ethyl]-4-ethyl-4-hydroxy-1,12-dihydro-4H-2-oxa-6,12a-diaza-dibenzo[b,h]fluorene-3,13-dione], the “IC50 Ratio” value (A2780/DX5 cells) was 7.8, the IC50 (A2780/DX5 cells; [19]) was 60.4 nM and the IC50 [7, 18] was 7.7 nM. The “Percent of Free Camptothecin Analogs” value (human plasma proteins; human, 100 nM) was 8%.
With CC[C@@]1(O)C(=O)OCc2c1cc1n(c2=O)Cc2c-1nc1ccccc1c2CC[Si](C)(C)C [Karenitecin, (4S)-4-ethyl-4-hydroxy-11-[2-(trimethylsilyl)ethyl]-1H-pyrano[3':4':6,7]indolizino[1,2-b]quinoline-3,14(4H,12H)-dione] the antitumor potency [8] was “significantly more potent”, the “Percent of Free Camptothecin Analogs” value (human plasma proteins) was 1.2% and the protein-bound (human plasma proteins) was 98-99%.
With CCc1c2c(nc3ccc(O)cc13)-c1cc3c(c(=O)n1C2)COC(=O)[C@]3(O)CC [SN-38, 10-hydroxy-7-ethyl camptothecin] the “Percent of Free Camptothecin Analogs” value (human plasma proteins; [17]) was 15%.
In the case of CC[C@@]1(O)C(=O)OCc2c1cc1n(c2=O)Cc2cc3c(CN(C)C)c(O)ccc3nc2-1 [Topotecan, 9-dimethylaminomethyl-10-hydroxy camptothecin], the “Percent of Free Camptothecin Analogs” value (human plasma proteins; [17]) is reported as 100%.
In the case of CC[C@@](O)(C(=O)O)c1cc2n(c(=O)c1CO)Cc1cc3ccccc3nc1-2 [carboxylate form of CPT], the “anti-tumor potency relative to the original, non-hydrolyzed lactone form” value ([9]; carboxylate form from sodium hydroxide formulation) is given as “approximately one-tenth or less” and the anti-tumor activity reduced ([9]; carboxylate form versus lactone) is given as “at least 10 fold”.
